Measurements from PubChem BioAssay (NCI).
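Cells were grown in 96-well plates and exposed to each compound for 48 hours at five concentrations; endpoints were interpolated linearly between bracketing concentrations, or set to the highest concentration if not reached. TGI: total growth inhibition.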

What was measured:
Test in all cases: NCI-60 cell line screen, 48 h
MOLT-4 leukemia = test system: MOLT-4 leukemia
SK-MEL-28 melanoma = test system: SK-MEL-28 melanoma
BT-549 breast = test system: BT-549 breast
COLO 205 colon = test system: COLO 205 colon
OVCAR-8 ovarian = test system: OVCAR-8 ovarian
RPMI-8226 leukemia = test system: RPMI-8226 leukemia
SF-295 CNS = test system: SF-295 CNS
DU-145 prostate = test system: DU-145 prostate
ACHN renal = test system: ACHN renal
M14 melanoma = test system: M14 melanoma
EKVX NSCLC = test system: EKVX NSCLC
NCI-H460 lung = test system: NCI-H460 lung
CAKI-1 renal = test system: CAKI-1 renal
SF-539 CNS = test system: SF-539 CNS
SN12C renal = test system: SN12C renal
NCI-H23 lung = test system: NCI-H23 lung
UACC-257 melanoma = test system: UACC-257 melanoma
MDA-MB-231 breast = test system: MDA-MB-231 breast
K-562 leukemia = test system: K-562 leukemia
RXF 393 renal = test system: RXF 393 renal
HOP-92 NSCLC = test system: HOP-92 NSCLC
OVCAR-5 ovarian = test system: OVCAR-5 ovarian
MCF7 breast = test system: MCF7 breast
HS 578T breast = test system: HS 578T breast
786-0 renal = test system: 786-0 renal
OVCAR-4 ovarian = test system: OVCAR-4 ovarian
MDA-MB-435 = test system: MDA-MB-435
PC-3 prostate = test system: PC-3 prostate
HCC-2998 colon = test system: HCC-2998 colon
SW-620 colon = test system: SW-620 colon
A498 renal = test system: A498 renal
IGROV1 ovarian = test system: IGROV1 ovarian
LOX IMVI melanoma = test system: LOX IMVI melanoma
NCI/ADR-RES ovarian = test system: NCI/ADR-RES ovarian
HT29 colon = test system: HT29 colon
SF-268 CNS = test system: SF-268 CNS
SR leukemia = test system: SR leukemia
CCRF-CEM leukemia = test system: CCRF-CEM leukemia
U251 CNS = test system: U251 CNS
NCI-H226 lung = test system: NCI-H226 lung
MDA-N = test system: MDA-N
OVCAR-3 ovarian = test system: OVCAR-3 ovarian
SNB-75 CNS = test system: SNB-75 CNS
HOP-62 NSCLC = test system: HOP-62 NSCLC
NCI-H522 lung = test system: NCI-H522 lung
UO-31 renal = test system: UO-31 renal
KM12 colon = test system: KM12 colon
HL-60(TB) leukemia = test system: HL-60(TB) leukemia
T-47D breast = test system: T-47D breast
MALME-3M melanoma = test system: MALME-3M melanoma
HCT-15 colon = test system: HCT-15 colon
HCT-116 colon = test system: HCT-116 colon
A549 NSCLC = test system: A549 NSCLC
SK-MEL-5 melanoma = test system: SK-MEL-5 melanoma
SK-OV-3 ovarian = test system: SK-OV-3 ovarian
UACC-62 melanoma = test system: UACC-62 melanoma
TK-10 renal = test system: TK-10 renal
SNB-19 CNS = test system: SNB-19 CNS

O=C1CC(CC(OCc2ccccc2)C(COCc2ccccc2)OCc2ccccc2)CC(=O)N1 (stereo unspecified)
TGI (MOLT-4 leukemia): 74.8 µM | TGI (SK-MEL-28 melanoma): > 100 µM | TGI (BT-549 breast): 49.8 µM | TGI (COLO 205 colon): 39.6 µM | TGI (OVCAR-8 ovarian): > 100 µM | TGI (RPMI-8226 leukemia): > 100 µM | TGI (SF-295 CNS): > 100 µM | TGI (DU-145 prostate): > 100 µM | TGI (ACHN renal): > 100 µM | TGI (M14 melanoma): > 100 µM | TGI (EKVX NSCLC): 92.8 µM | TGI (NCI-H460 lung): > 100 µM | TGI (CAKI-1 renal): 76.3 µM | TGI (SF-539 CNS): > 100 µM | TGI (SN12C renal): > 100 µM | TGI (NCI-H23 lung): > 100 µM | TGI (UACC-257 melanoma): > 100 µM | TGI (MDA-MB-231 breast): > 100 µM | TGI (K-562 leukemia): > 100 µM | TGI (RXF 393 renal): > 100 µM | TGI (HOP-92 NSCLC): 86.1 µM | TGI (OVCAR-5 ovarian): > 100 µM | TGI (MCF7 breast): > 100 µM | TGI (HS 578T breast): > 100 µM | TGI (786-0 renal): > 100 µM | TGI (OVCAR-4 ovarian): > 100 µM | TGI (MDA-MB-435): 85 µM | TGI (PC-3 prostate): 63.9 µM | TGI (HCC-2998 colon): > 100 µM | TGI (SW-620 colon): > 100 µM | TGI (A498 renal): > 100 µM | TGI (IGROV1 ovarian): > 100 µM | TGI (LOX IMVI melanoma): > 100 µM | TGI (NCI/ADR-RES ovarian): 97.9 µM | TGI (HT29 colon): 65.9 µM | TGI (SF-268 CNS): > 100 µM | TGI (SR leukemia): > 100 µM | TGI (CCRF-CEM leukemia): > 100 µM | TGI (U251 CNS): > 100 µM | TGI (NCI-H226 lung): > 100 µM | TGI (MDA-N): 82.4 µM | TGI (OVCAR-3 ovarian): > 100 µM | TGI (SNB-75 CNS): > 100 µM | TGI (HOP-62 NSCLC): > 100 µM | TGI (NCI-H522 lung): 61.7 µM | TGI (UO-31 renal): 58.5 µM | TGI (KM12 colon): > 100 µM | TGI (HL-60(TB) leukemia): > 100 µM | TGI (T-47D breast): 94.5 µM | TGI (MALME-3M melanoma): 45.8 µM | TGI (HCT-15 colon): > 100 µM | TGI (HCT-116 colon): > 100 µM | TGI (A549 NSCLC): > 100 µM | TGI (SK-MEL-5 melanoma): 30.9 µM

CN(/N=C/c1cccs1)c1ccc([N+](=O)[O-])cc1[N+](=O)[O-]
TGI (MOLT-4 leukemia): > 100 µM | TGI (SK-OV-3 ovarian): > 100 µM | TGI (SK-MEL-28 melanoma): > 100 µM | TGI (BT-549 breast): > 100 µM | TGI (COLO 205 colon): > 100 µM | TGI (OVCAR-8 ovarian): > 100 µM | TGI (RPMI-8226 leukemia): > 100 µM | TGI (SF-295 CNS): > 100 µM | TGI (DU-145 prostate): > 100 µM | TGI (UACC-62 melanoma): > 100 µM | TGI (ACHN renal): > 100 µM | TGI (TK-10 renal): > 100 µM | TGI (M14 melanoma): > 100 µM | TGI (EKVX NSCLC): > 100 µM | TGI (NCI-H460 lung): > 100 µM | TGI (CAKI-1 renal): > 100 µM | TGI (SF-539 CNS): > 100 µM | TGI (SN12C renal): > 100 µM | TGI (NCI-H23 lung): > 100 µM | TGI (UACC-257 melanoma): > 100 µM | TGI (SNB-19 CNS): > 100 µM | TGI (MDA-MB-231 breast): > 100 µM | TGI (K-562 leukemia): > 100 µM | TGI (RXF 393 renal): > 100 µM | TGI (MCF7 breast): > 100 µM | TGI (HS 578T breast): > 100 µM | TGI (786-0 renal): > 100 µM | TGI (OVCAR-4 ovarian): > 100 µM | TGI (MDA-MB-435): > 100 µM | TGI (PC-3 prostate): > 100 µM | TGI (HCC-2998 colon): > 100 µM | TGI (SW-620 colon): > 100 µM | TGI (IGROV1 ovarian): > 100 µM | TGI (NCI/ADR-RES ovarian): > 100 µM | TGI (HT29 colon): > 100 µM | TGI (SF-268 CNS): > 100 µM | TGI (SR leukemia): > 100 µM | TGI (CCRF-CEM leukemia): > 100 µM | TGI (U251 CNS): > 100 µM | TGI (MDA-N): > 100 µM | TGI (OVCAR-3 ovarian): > 100 µM | TGI (SNB-75 CNS): > 100 µM | TGI (HOP-62 NSCLC): > 100 µM | TGI (NCI-H522 lung): > 100 µM | TGI (UO-31 renal): > 100 µM | TGI (KM12 colon): > 100 µM | TGI (HL-60(TB) leukemia): > 100 µM | TGI (T-47D breast): > 100 µM | TGI (HCT-15 colon): > 100 µM | TGI (HCT-116 colon): > 100 µM | TGI (A549 NSCLC): > 100 µM | TGI (SK-MEL-5 melanoma): > 100 µM
